Reference: ChEMBL document CHEMBL3352542, “Synthesis, biological evaluation and molecular modeling study of 2-(1,3,4-thiadiazolyl-thio and 4-methyl-thiazolyl-thio)-quinazolin-4-ones as a new class of DHFR inhibitors” (Bioorg Med Chem Lett, 2014)
The source made the active and inactive calls. The rule behind the calls is not given here.

What was measured:
[1] = tested on: KM12; assay: Growth inhibition of human KM12 cells at 10 uM after 48 hrs; format: functional
[2] = tested on: RXF 393; assay: Growth inhibition of human RXF393 cells at 10 uM after 48 hrs; format: functional
[3] = tested on: PC-3; assay: Growth inhibition of human PC3 cells at 10 uM after 48 hrs; format: functional
[4] = tested on: Staphylococcus aureus; assay: Antimicrobial activity against Staphylococcus aureus assessed as inhibition of visible growth after 24 hrs by disc-diffusion method; format: functional, organism-based
[5] = tested on: HOP-92; assay: Growth inhibition of human HOP92 cells at 10 uM after 48 hrs; format: functional
[6] = tested on: MDA-MB-435; assay: Growth inhibition of human MDA-MB-435 cells at 10 uM after 48 hrs; format: functional
[7] = tested on: Pseudomonas aeruginosa; assay: Antimicrobial activity against Pseudomonas aeruginosa assessed as inhibition zone at 200 ug/disk after 24 hrs by disc-diffusion method; format: functional; conditions: read-out: IZ
[8] = tested on: MDA-MB-468; assay: Growth inhibition of human MDA-MB-468 cells at 10 uM after 48 hrs; format: functional
[9] = tested on: RPMI-8226; assay: Growth inhibition of human RPMI8226 cells at 10 uM after 48 hrs; format: functional
[10] = tested on: Escherichia coli; assay: Antimicrobial activity against Escherichia coli assessed as inhibition zone at 200 ug/disk after 24 hrs by disc-diffusion method; format: functional; conditions: read-out: IZ
[11] = tested on: SK-MEL-5; assay: Growth inhibition of human SK-MEL-5 cells at 10 uM after 48 hrs; format: functional
[12] = tested on: T47D; assay: Growth inhibition of human T47D cells at 10 uM after 48 hrs; format: functional
[13] = tested on: UACC-257; assay: Growth inhibition of human UACC257 cells at 10 uM after 48 hrs; format: functional
[14] = tested on: SF-539; assay: Growth inhibition of human SF539 cells at 10 uM after 48 hrs; format: functional
[15] = tested on: Hs-578T; assay: Growth inhibition of human Hs 578T cells at 10 uM after 48 hrs; format: functional
[16] = tested on: HOP-62; assay: Growth inhibition of human HOP62 cells at 10 uM after 48 hrs; format: functional
[17] = tested on: CAKI-1; assay: Growth inhibition of human CAKI-1 cells at 10 uM after 48 hrs; format: functional
[18] = tested on: UO-31; assay: Growth inhibition of human UO31 cells at 10 uM after 48 hrs; format: functional
[19] = tested on: SF-295; assay: Growth inhibition of human SF295 cells at 10 uM after 48 hrs; format: functional
[20] = tested on: SR; assay: Growth inhibition of human SR cells at 10 uM after 48 hrs; format: functional
[21] = tested on: A498; assay: Growth inhibition of human A498 cells at 10 uM after 48 hrs; format: functional
[22] = tested on: NCI-H226; assay: Growth inhibition of human NCI-H226 cells at 10 uM after 48 hrs; format: functional
[23] = tested on: NCI-H522; assay: Growth inhibition of human NCI-H522 cells at 10 uM after 48 hrs; format: functional
[24] = tested on: MOLT-4; assay: Growth inhibition of human MOLT4 cells at 10 uM after 48 hrs; format: functional
[25] = tested on: Bacillus subtilis; assay: Antimicrobial activity against Bacillus subtilis assessed as inhibition zone at 200 ug/disk after 24 hrs by disc-diffusion method; format: functional; conditions: read-out: IZ
[26] = tested on: K562; assay: Growth inhibition of human K562 cells at 10 uM after 48 hrs; format: functional
[27] = tested on: Bacillus subtilis; assay: Antimicrobial activity against Bacillus subtilis assessed as inhibition of visible growth after 24 hrs by disc-diffusion method; format: functional, organism-based
[28] = tested on: Candida albicans; assay: Antimicrobial activity against Candida albicans assessed as inhibition zone at 200 ug/disk after 24 hrs by disc-diffusion method; format: functional; conditions: read-out: IZ
[29] = tested on: Malme-3M; assay: Growth inhibition of human MALME-3M cells at 10 uM after 48 hrs; format: functional
[30] = tested on: OVCAR-4; assay: Growth inhibition of human OVCAR4 cells at 10 uM after 48 hrs; format: functional
[31] = tested on: U-251; assay: Growth inhibition of human U251 cells at 10 uM after 48 hrs; format: functional
[32] = tested on: HCT-116; assay: Growth inhibition of human HCT116 cells at 10 uM after 48 hrs; format: functional
[33] = tested on: Escherichia coli; assay: Antimicrobial activity against Escherichia coli assessed as inhibition of visible growth after 24 hrs by disc-diffusion method; format: functional, organism-based
[34] = tested on: SK-MEL-28; assay: Growth inhibition of human SK-MEL-28 cells at 10 uM after 48 hrs; format: functional, cell-based
[35] = biological target: T1, Dihydrofolate reductase (Bos taurus, UniProt P00376); assay: Inhibition of bovine liver DHFR
T1 sequence (P00376 whole entry): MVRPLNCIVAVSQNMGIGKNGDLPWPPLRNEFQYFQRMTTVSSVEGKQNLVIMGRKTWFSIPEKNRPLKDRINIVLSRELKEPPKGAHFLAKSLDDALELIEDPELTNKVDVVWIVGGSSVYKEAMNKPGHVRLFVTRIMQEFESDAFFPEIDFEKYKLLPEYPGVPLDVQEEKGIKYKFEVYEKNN

[36] = tested on: CCRF-CEM; assay: Growth inhibition of human CCRF-CEM cells at 10 uM after 48 hrs; format: functional
[37] = tested on: HT-29; assay: Growth inhibition of human HT-29 cells at 10 uM after 48 hrs; format: functional
[38] = tested on: HL-60(TB); assay: Growth inhibition of human HL-60(TB) cells at 10 uM after 48 hrs; format: functional
[39] = tested on: A549; assay: Growth inhibition of human A549 cells at 10 uM after 48 hrs; format: functional
[40] = tested on: SNB-19; assay: Growth inhibition of human SNB19 cells at 10 uM after 48 hrs; format: functional
[41] = tested on: HCT-15; assay: Growth inhibition of human HCT15 cells at 10 uM after 48 hrs; format: functional
[42] = tested on: 786-0; assay: Growth inhibition of human 786-0 cells at 10 uM after 48 hrs; format: functional
[43] = tested on: Staphylococcus aureus; assay: Antimicrobial activity against Staphylococcus aureus assessed as inhibition zone at 200 ug/disk after 24 hrs by disc-diffusion method; format: functional; conditions: read-out: IZ
[44] = tested on: MDA-MB-231; assay: Growth inhibition of human MDA-MB-231 cells at 10 uM after 48 hrs; format: functional
[45] = tested on: UACC-62; assay: Growth inhibition of human UACC62 cells at 10 uM after 48 hrs; format: functional
[46] = tested on: MCF7; assay: Growth inhibition of human MCF7 cells at 10 uM after 48 hrs; format: functional

Compound: Cc1ccc(-n2c(Sc3nnc(N)s3)nc3ccc(Cl)cc3c2=O)cc1
- growth inhibition (GI) [1]: inactive
- growth inhibition (GI) [2]: inactive
- growth inhibition (GI) [3]: inactive
- Activity [4]: Active
- growth inhibition (GI) [5]: inactive
- growth inhibition (GI) [6]: inactive
- zone of inhibition at 200 µg/disc [7]: 14 mm
- growth inhibition (GI) [8]: inactive
- growth inhibition (GI) [9]: inactive
- zone of inhibition at 200 µg/disc [10]: 18 mm
- growth inhibition (GI) [11]: inactive
- growth inhibition (GI) [12]: inactive
- growth inhibition (GI) [13]: inactive
- growth inhibition (GI) [14]: inactive
- growth inhibition (GI) [15]: inactive
- growth inhibition (GI) [16]: inactive
- growth inhibition (GI) [17]: inactive
- growth inhibition (GI) [18]: inactive
- growth inhibition (GI) [19]: inactive
- growth inhibition (GI) [20]: inactive
- growth inhibition (GI) [21]: inactive
- growth inhibition (GI) [22]: inactive
- growth inhibition (GI) [23]: inactive
- growth inhibition (GI) [24]: inactive
- zone of inhibition at 200 µg/disc [25]: 20 mm
- growth inhibition (GI) [26]: inactive
- Activity [27]: Active
- zone of inhibition at 200 µg/disc [28]: 10 mm
- growth inhibition (GI) [29]: inactive
- growth inhibition (GI) [30]: inactive
- growth inhibition (GI) [31]: inactive
- growth inhibition (GI) [32]: inactive
- Activity [33]: Active
- growth inhibition (GI) [34]: inactive
- IC50 [35]: 8 µM
- growth inhibition (GI) [36]: inactive
- growth inhibition (GI) [37]: inactive
- growth inhibition (GI) [38]: inactive
- growth inhibition (GI) [39]: inactive
- growth inhibition (GI) [40]: inactive
- growth inhibition (GI) [41]: inactive
- growth inhibition (GI) [42]: inactive
- zone of inhibition at 200 µg/disc [43]: 18 mm
- growth inhibition (GI) [44]: inactive
- growth inhibition (GI) [45]: inactive
- growth inhibition (GI) [46]: inactive
